Source: patent US20040147723A1, “Moringa seed proteins” (priority 2001, published 2004)
Values after ≈ are worked out from the molar mass of the structure shown. Where no end group is shown, it is not given here.

What was measured:
[1] = tested on: L. pneumophilia serogroup 1; assay: MIC/MBC in 96-well micro plaque, BYEα medium; type: cell-based
Procedure: (§1) Source of bacteria: The bacteria were isolated from drinking water of hospitals in Ticino, patient strains were obtained from the laboratory of microbiology at the CHUV.
(§2) MIC (minimal inhibitory concentration): MIC was measured with the help of a micro plaque with 96 wells, each containing 100 μl. The growth media were BYEα for L. pneumophilia and TSB for Mycobacterium and were containing a certain concentration of the peptide or antibiotic.
(§3) The media were then subjected to twofold dilutions (1 μl of bacterial suspension at a concentration of 5*10^8 CFU/ml diluted to 5*10^6 CFU/ml).
(§4) The L. pneumophilia culture was incubated at 35° C. and the results were read after 48 and 96 hours. The Mycobacterium culture was incubated at 30° C. for up to seven days.
(§5) MIC is the first well […].
(§6) MBC (minimal bactericidal concentration): 50 μl of the above suspensions were plated on solid media BCYEα or agar with blood. The L. pneumophilia culture was incubated at 35° C. for 48 hours and up to seven days for Mycobacterium.
(§7) The MBC value is the first plate without growth.

[2] = tested on: L. pneumophilia serogroup 10; assay: MIC/MBC in 96-well micro plaque, BYEα medium; type: cell-based
Procedure: as §1, §2, §3, §4, §5, §6, §7

[3] = Coagulation test (glass bead suspension sedimentation); conditions: 20 μg/ml, glass beads
Procedure: The test was carried out in a 2 ml volume in a spectrophotometer cell (104QS/HELLMA). To evaluate the coagulation activity, 100 mg/ml suspension of 3.5-7 μm diameter glass beads (Sheriglass 5000, Potters-Ballotini) were diluted in 50 mM phosphate buffer, pH=7.0, to mimic turbid water. Stirring was kept continuously at 800 rpm and OD 500 nm was measured each second (LabVIEW sfotware/National Instruments Corporation) in a Perkin-Elmer 552 spectrophotometer. After 5 minutes of continuous stirring the compound to be tested was added to a final concentration of 20 μg/ml, and stirring was continued for 15 minutes. Active compounds were diluted before the test either in phosphate buffer 10 mM, pH=7.0 (E proteins, PHYTOFLOC and bacterially produced Flo) or in distilled water (synthetic Flo).
To quantify the flocculation efficiency a linear regression was performed on time points corresponding to four minutes before the addition of the flocculating preparation (basal sedimentation) and four minutes after the addition of the flocculating preparation (coagulation-mediated sedimentation). The difference between the coagulation-mediated and basal sedimentation was calculated by subtraction in OD per minutes and multiplied by 1000 (Δ slope).
To assess particle coagulation properties of Flo, a suspension of glass beads under continuous mixing was used to mimic turbid water. […]

E.coli ER2566 = conditions: ER2566, 2 h
Procedure: E.coli ER2566 was grown in LB medium to the exponential phase (A600=0.5-0.6) at 37° C. as above. The culture was centrifuged and resuspended in a same volume of 10 mM phosphate buffer pH=7.0, and E proteins, PHYTOFLOC (2 mg/ml), synthetic Flo (0.1 mg/ml to 2 mg/ml) carrier (buffer) or BSA (2 mg/ml) were added. After 2 hours incubation at 37° C., LB was added to the bacteria culture to obtain A600=0.1. All cultures were incubated at 37° C. at 200 rpm and the culture growth was followed through A600 measurements.
An exponential phase E.coli culture was centrifuged and incubated for 2 hrs at 37° C. in phosphate buffer alone (♦), or in phosphate buffer supplemented by the PHYTOFLOC extract (σ) or by synthetic Flo (ν) at a final concentration of 2 mg/ml. Bacteria were then diluted to A600=0.1 in LB growth medium and incubated at 37° C. under agitation. Optical density measurements were then recorded as indicated at 600 nm.
B. Exponentially growing E.coli culture was processed as indicated in (A) except that bacteria were incubated with different concentrations of synthetic Flo in mg/ml: 0 (ν), 0.1 (σ), 0.25 (O), 0.5 (Σ), 1 (λ) or 2 (B). BSA at 2 mg/ml was used as a non specific protein control (♦).

Compound	MBC [1] [µg/mL]	MIC [1] [µg/mL]	MBC ([2]; L. pneumophilia serogroup 10) [µg/mL]	MIC ([2]; L. pneumophilia serogroup 10, 35° C.) [µg/mL]	specific coagulation activity compared with PHYTOFLOC [3]	IC50 of antibacterial growth response (E.coli ER2566)
O=C(O)c1cn(C2CC2)c2cc(N3CCNCC3)c(F)cc2c1=O [Ciprofloxacin]	30 to 60 (≈ 90.5 to 181 µM)	30 (≈ 90.5 µM)	16 to 30 (≈ 48.3 to 90.5 µM)	16 (≈ 48.3 µM)		
QGPGRQPDFQRCGQQLRNISPPQRCPSLRQAVQLTHQQQGQVGPQQVRQMYRVASNIPST (cysteines drawn unpaired) [synthetic Flo]					higher	approximately 100 μg/ml
